The values that follow come from patent US20030171579A1, “Urethane derivatives” (priority 2003, published 2003).

Each structure is given as a SMILES string.

In one data set the target is factor Xa, human (Homo sapiens, UniProt P00742). The experiment in a line: Inhibition of factor Xa ("Affinity to receptors"). It counts as biochemical. From the text:
The inhibition of factor Xa by the compounds according to the invention and the measurement of the anticoagulant and antithrombotic activity can be determined by conventional in-vitro or in-vivo methods. A suitable method is described, for example, by J. Hauptmann et al. in Thrombosis and Haemostasis 1990, 63, 220-223.
The inhibition of factor Xa can be measured, for example, by the method of T. Hara et al. in Thromb. Haemostas. 1994, 71, 314-319.

A further data set addresses TF/VIIa (Homo sapiens, UniProt P08709). The data set can be described thus: Inhibition of TF/VIIa ("Affinity to receptors"). The format is biochemical. From the text: The inhibition of factor VIIa by the compounds according to the invention and the measurement of the anticoagulant and antithrombotic activity can be determined by conventional in-vitro or in-vivo methods. A conventional method for the measurement of the inhibition of factor VIIa is described, for example, by H. F. Ronning et al. in Thrombosis Research 1996, 84, 73-81.

Chain of TF/VIIa (P08709 213-466 limits assumed): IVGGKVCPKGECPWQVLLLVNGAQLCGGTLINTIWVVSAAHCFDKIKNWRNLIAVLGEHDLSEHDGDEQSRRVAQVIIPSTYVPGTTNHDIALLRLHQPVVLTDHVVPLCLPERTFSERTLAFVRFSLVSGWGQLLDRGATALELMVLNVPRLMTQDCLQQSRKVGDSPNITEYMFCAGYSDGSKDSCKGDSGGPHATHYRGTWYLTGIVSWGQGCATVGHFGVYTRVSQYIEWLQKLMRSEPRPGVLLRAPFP
Chain of TF/VIIa (P08709 61-212 limits assumed): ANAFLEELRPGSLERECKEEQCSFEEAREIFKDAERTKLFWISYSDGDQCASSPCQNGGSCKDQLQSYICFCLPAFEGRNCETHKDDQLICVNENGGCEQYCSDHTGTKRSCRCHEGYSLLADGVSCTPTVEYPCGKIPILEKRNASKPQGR
Chain of TF/VIIa (P13726 33-295 partner): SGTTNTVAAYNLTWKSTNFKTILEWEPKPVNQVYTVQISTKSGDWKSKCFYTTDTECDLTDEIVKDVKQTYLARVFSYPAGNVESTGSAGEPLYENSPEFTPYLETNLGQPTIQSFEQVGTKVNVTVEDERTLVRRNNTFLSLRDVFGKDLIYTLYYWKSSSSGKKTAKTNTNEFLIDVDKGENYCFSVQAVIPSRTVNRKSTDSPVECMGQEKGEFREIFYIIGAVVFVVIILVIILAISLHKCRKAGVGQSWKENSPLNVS
Chain of factor Xa, human (P00742 235-488 limits assumed): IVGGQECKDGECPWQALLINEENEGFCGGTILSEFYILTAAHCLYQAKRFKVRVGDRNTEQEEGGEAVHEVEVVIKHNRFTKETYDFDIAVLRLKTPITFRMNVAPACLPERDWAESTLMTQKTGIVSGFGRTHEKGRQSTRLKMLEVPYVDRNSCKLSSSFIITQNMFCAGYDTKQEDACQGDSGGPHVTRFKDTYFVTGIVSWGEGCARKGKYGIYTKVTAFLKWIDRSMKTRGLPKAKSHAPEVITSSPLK
Chain of factor Xa, human (P00742 41-179 limits assumed): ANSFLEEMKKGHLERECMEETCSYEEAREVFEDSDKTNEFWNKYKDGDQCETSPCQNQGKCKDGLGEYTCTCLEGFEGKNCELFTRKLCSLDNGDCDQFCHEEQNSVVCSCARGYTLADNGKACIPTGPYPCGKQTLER

For `CCCN(Cc1cccc(C(=N)N)c1)C(=O)Nc1ccc(-c2ccccc2S(N)(=O)=O)cc1` [Example 3.3, 1-(3-amidino-benzyl)-3-(2′-sulfamoylbiphenyl-4-yl)-1-propylurea], the melting point is 166 to 167 °C. Inhibition at factor Xa, human was half-maximal at 140 nM (IC50). For the same molecule, it took 80 nM to reach half-maximal inhibition against TF/VIIa (IC50).
On to `CS(=O)(=O)c1ccccc1-c1ccc(NC(=O)N(Cc2cccc(C(=N)N)c2)c2ccccc2)cc1` [Example 6.3, 1-(3-amidinobenzyl)-3-(2′-methylsulfonylbiphenyl-4-yl)-1-phenylurea], for which the half-maximal inhibitory concentration (IC50) against factor Xa, human was 300 nM; on TF/VIIa it was 70 nM.
`CCCN(Cc1cccc(C(=N)N)c1)C(=O)Nc1ccc(-c2ccccc2S(C)(=O)=O)cc1` [Example 4.3, 1-(3-amidino-benzyl)-3-(2′-methylsulfonylbiphenyl-4-yl)-1-propylurea]: the IC50 against factor Xa, human is 100 nM; at TF/VIIa, 30 nM.
Turning to `CS(=O)(=O)c1ccccc1-c1ccc(NC(=O)N(Cc2ccccc2)Cc2cccc(C(=N)N)c2)cc1` [1-(3-amidinobenzyl)-3-(2′-methylsulfonylbiphenyl-4-yl)-1-benzylurea], the IC50 at factor Xa, human worked out at 80 nM; on TF/VIIa, 26 nM.
Consider `N=C(N)c1cccc(CN(C(=O)Nc2ccc(-c3ccccc3S(N)(=O)=O)cc2)c2ccccc2)c1` [Example 5.3, 1-(3-amidinobenzyl)-3-(2′-sulfamoylbiphenyl-4-yl)-1-phenylurea], for which the melting point fell in the range of 201 to 202 °C. This molecule displayed a half-maximal inhibitory concentration (IC50) at factor Xa, human of 330 nM. The IC50 on TF/VIIa is 100 nM.

What is called IC50 is the concentration needed to halve the response being measured. Higher therefore signals weaker potency in that assay. By melting point is commonly meant the temperature, or range, at which the solid turns liquid.
